Data from patent US6485922B1, “Methods for detecting compounds which modulate the activity of an LPA receptor” (Atairgin Technologies, Inc., priority 1997, dated 2002).

What was measured:
human LPA receptor EDG-2 = target: T1, human LPA receptor EDG-2 (Homo sapiens, UniProt Q92633); test: FUS1::lacZ (β-galactosidase) reporter assay in yeast expressing EDG-2; type: cell-based; conditions: for activation of EDG-2 (FUS1::lacZ activity): concentrations up to 200 μM, S.C.+2% galactose; for activity towards EDG-2 of liposome preparations on their own: liposomes without LPA
T1 construct: The EDG-2 coding region was amplified by RT-PCR using Pfu DNA polymerase; expressed in transfected cells; host or cells: Saccharomyces cerevisiae JEY5 (sst2-, far1, FUS1::lacZ), plasmid pYEUra3-Edg2 (pJE15), galactose-inducible
Experimental: SY2069 (Mata, far1-bad3, HIS3::pFUS1::HIS3, mfa2-Δ1::pFUS1::lacZ, ura3, leu2, ade1, arg4, trp1) was used to derive an sst2^− strain for subsequent studies. SST2 was disrupted using pBC14 (Dohlman, H. G., et al. (1996) Mol. Cell. Biol. 16(9), 5194-5209). pBC14 was digested with NcoI and transformed into SY2069 by lithium acetate using the URA3 gene for selection. Ura^+ colonies were grown in non-selective media (YEPD) and plated onto media containing 5-Flouro-orotic Acid (5-FOA, Sigma). The resultant 5-FOA resistant isolates were tested for the supersensitive phenotype by assaying lacZ activity in response to α-factor (data not shown). One sst2^− strain was named JEY5 and used in all subsequent studies. Yeast were grown in SC+2% Galactose or 2% Glucose media lacking Uracil.
Construction of EDG-2 Expression Plasmid and Expression in Yeast: The EDG-2 coding region was amplified by RT-PCR using Pfu DNA polymerase under conditions described by the supplier (Stratagene). The template for RT-PCR was cDNA (5 ng) that was reverse transcribed from human fetal brain total RNA (Clontech) using SuperScript II Reverse Transcriptase as described by the supplier (Gibco BRL). 1 μM each of the following primers, FP; 5′-[…]-3′ (SEQ ID NO. 2) and RP; 5′-[…]-3′ (SEQ ID NO. 3), were used for RT-PCR. Oligonucleotide Synthesis and DNA Sequencing: PCR primers and DNA sequencing primers were synthesized by the phosphoramidite method with an Applied Biosystems model 394 synthesizer, purified by polyacrylamide gel electrophoresis and desalted on Sep-Pak C18 cartridges (Waters Associates, Milford, Mass.). The edg-2 cDNA was sequenced in pYEUra3 by the dideoxy chain termination method using the T7 Sequenase7-deaza-dGTP sequencing kit as described by the supplier (Amersham Life Science). The primers were designed based on the human edg-2 cDNA sequence submitted to Genbank by Zondag and Moolenaar (accession no. Y09479) and included restriction site extensions for subcloning into the pYEUra3 vector (Stratagene). This placed the cDNA under the control of a galactose-inducible promoter (UASgal). The resulting plasmid was used to transform JEY5 by the lithium acetate method.
(§1) Expression of the EDG-2: To test the effects of the SST2 gene product on the edg-2 response to LPA, JEY5 (sst2Δ) expressing the EDG-2 receptor was compared to the parental SY2069 strain (SST2^+). […] As a control, JEY5+EDG-2 was assayed in 2% glucose such that the GAL1 promoter would be repressed and thus not expressing the edg-2 gene (glucose repression is described in detail by Johnston, M., and Carlson, M. (1992) in The molecular and cellular biology of the yeast Saccharomyces: gene expression (Broach, J. R., Pringle, J. R., and Jones, E. W., eds), pp. 193-281, Cold Spring Harbor Laborartory Press, Plainview, N.Y.). lacZ assays in response to phospholipids: JEY5+pJE15 was grown on SC media containing either 2% galactose or 2% glucose lacking uracil to an approximate optical density of 0.1-0.5 prior to the addition of lipid or α-factor. LPA and other glycerophospholipids (Avanti Polar Lipids) were dissolved in chloroform and dried down under vacuum immediately prior to experiments and resuspended in BBS/EDTA (50 mM NH4HCO3, 104 mM NaCl, 250 mM EDTA2Na) at 1 mg/ml with sonication until the solution was clear. Sphingosine-1-phosphate (Matreya) was resuspended in ethanol/water (9:1) pH 3.0 immediately prior to use. Fatty Acid Free Bovine Serum Albumin was obtained from Sigma (St. Louis, Mo.) and used at 0.1 mg/ml in BBS/EDTA. Cells were allowed to grow for the indicated time (7 hours for dose response experiments) prior to assaying. 100 μl of yeast culture were then added to 900 μl assay buffer (per liter: 60 mM Na2HPO4, 40 mM NaH2PO4, 10 mM KCl, 0.1 mM MgSO4, pH 7.0 plus 2.7 ml β-mercaptoethanol per liter) plus 50 μl 0.1%SDS+three drops Chloroform. Cells were vortexed for 10 seconds and incubated for 5 minutes at 28° C.

yeast cells = test: Toxicity of lipids to the yeast cells in the lacZ assay; type: cell-based, Saccharomyces cerevisiae; conditions: yeast culture
Experimental: as §1, with “[…] Color development” for “Fatty Acid Free Bovine Serum Albumin”, “measured at A420” for “obtained from Sigma (St. Louis, Mo.)”, “normalized to A600. Units” for “used at 0.1 mg/ml in BBS/EDTA. Cells”, “expressed as Miller Units. […]” for “allowed to grow for the indicated time (7 hours for dose response experiments) prior to assaying. 100 μl of yeast culture were then added to 900 μl assay buffer (per liter: 60 mM Na2HPO4, 40 mM NaH2PO4, 10 mM KCl, 0.1 mM MgSO4, pH 7.0 plus 2.7 ml β-mercaptoethanol per liter) plus 50 μl 0.1%SDS+three drops Chloroform. Cells were vortexed for 10 seconds and incubated for 5 minutes at 28° C.”

T1 sequence (Q92633 whole entry): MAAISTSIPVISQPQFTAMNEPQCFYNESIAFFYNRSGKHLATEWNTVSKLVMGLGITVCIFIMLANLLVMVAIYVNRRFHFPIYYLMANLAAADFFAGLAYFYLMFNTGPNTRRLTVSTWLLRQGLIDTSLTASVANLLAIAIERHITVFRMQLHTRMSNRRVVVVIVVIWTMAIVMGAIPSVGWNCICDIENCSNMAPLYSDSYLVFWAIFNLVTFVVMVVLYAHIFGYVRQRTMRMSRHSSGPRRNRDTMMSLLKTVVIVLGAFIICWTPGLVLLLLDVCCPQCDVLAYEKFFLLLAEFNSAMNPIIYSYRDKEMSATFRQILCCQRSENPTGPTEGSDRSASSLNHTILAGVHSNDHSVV

Compound: CCCCCCCCCCCCC/C=C/[C@@H](O)[C@@H](N)COP(=O)(O)O [Sphingosine-1-phosphate]
- activation of EDG-2 (FUS1::lacZ activity) (human LPA receptor EDG-2; seven hours): no other lyso-glycerolphospholipid or Sphingosine-1-phosphate activated EDG-2 as well as did LPA
- activation of EDG-2 (FUS1::lacZ activity) (human LPA receptor EDG-2; seven hours, listed as sphingosine-1-phosphate): does not respond

Compound: 1-palmitoyl-2-oleoyl-phosphatidylglycerol
- activity towards EDG-2 of liposome preparations on their own (human LPA receptor EDG-2): no activity

Compound: 1-acyl-2-hydroxy-sn-glycero-3-phosphate [LPA]
- response of FUS1::lacZ to LPA, sst2- derivative (human LPA receptor EDG-2; JEY5 (sst2Δ) expressing EDG-2, 200 μM LPA, galactose, seven hours): activated
- activation of EDG-2 (FUS1::lacZ activity) (human LPA receptor EDG-2; seven hours): specifically responds
- response of FUS1::lacZ to LPA, SST2+ strain (human LPA receptor EDG-2; parental SY2069 strain (SST2+) expressing EDG-2): unresponsive
- maximal stimulation of lacZ activity as compared to vector control (human LPA receptor EDG-2; time course, at 7 hours): four-fold
- concentration at which toxicity was seen / above which testing was not possible due to toxicity (yeast cells): above 600 μM

Compound: dioleoyl-phosphatidylcholine
- activity towards EDG-2 of liposome preparations on their own (human LPA receptor EDG-2): no activity
